For orientation: IC50 means the concentration needed to halve the response being measured.

Where two headings read alike, the source gives them in different places.

What all share (assay type): cell-based
In experiment [1] the target is T1, BaF3 (EGFR/D770insSVD) (Homo sapiens, UniProt P00533, DUP768-770, cells depend on it).
T1 construct: Test 13 IC50 (nM); other: BaF3 (EGFR/D770insSVD), 72 hours, Cell Titer-Glo
The experiment can be described thus: Test 13: EGFR exon 20 inserted D770insSVD cell proliferation test. The settings on record: BaF3 (EGFR/D770insSVD), 72 hours, Cell Titer-Glo, read-out: Test 13 IC50. In a few lines: (§1)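 BaF3 cells expressing EGFR D770insSVD, 3,000 cells/well, seeded overnight at 37° C, 5% CO2, then exposed to serially diluted compound for 72 h. Viable cells read by CellTiter-Glo luminescence; values from curve fitting.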
Background: Cellular ATP, detected with luciferase, serves as a proxy for viable cell number.

For a further experiment, the target named is BaF3 (EGFR/A763insFQEA) (Homo sapiens, UniProt P00533, INS763FQEA, cells depend on it). The experiment in a line: Test 14: EGFR exon 20 inserted A763insFQEA cell proliferation test. The settings on record: 72 hours, Cell Titer-Glo, read-out: Test 14 IC50. As to the method:
Test 14: EGFR Exon 20 Inserted A763insFQEA Cell Proliferation Test
(§2) The number of viable cells in the culture was measured according to the protocol described in Promega's Cell Titer-Glo Luminescent cell Viability Assay (Promega catalog number #G7570). 90 μl of cells (3,000 cells/well) were cultured in growth medium in a Corning black transparent bottom 96-well plate, and cultured in a 5% CO2 humidified incubator at 37° C. overnight. The compound serially diluted in 100% DMSO was added to the cells using a pipette, and the cells were incubated for another 72 hours. 100 μl of the mixed Cell Titer-Glo reagent was added to the cells in the 96-well culture plate to lyse the cells and mix gently. Subsequently, the […] was detected on the Envision microplate detector to obtain the data of each compound. Finally, the data was input into a suitable software package (such as Prism) for curve fitting analysis.

The next experiment concerns the target BaF3 (EGFR/V769insASV) (Homo sapiens, UniProt P00533, DUP767-769, cells depend on it). The experiment can be described thus: Test 15: EGFR exon 20 inserted V769insASV cell proliferation test. Conditions: 72 hours, Cell Titer-Glo, read-out: Test 15 IC50. The method, then: Test 15: EGFR Exon 20 Inserted V769insASV Cell Proliferation Test
as §2, with “(3000” for “(3,000”

The target of another experiment is T2, BaF3 (EGFR/N771insH) (Homo sapiens, UniProt P00533, cells depend on it, form not given).
T2 construct: Test 16 IC50 (nM); other: BaF3 (EGFR/N771insH), 72 hours, Cell Titer-Glo
The experiment can be described thus: Test 16: EGFR exon 20 inserted N771insH cell proliferation test. The settings on record: BaF3 (EGFR/N771insH), 72 hours, Cell Titer-Glo, read-out: Test 16 IC50.

The target of another experiment is BaF3 (EGFR/D770insNPG) (Homo sapiens, UniProt P00533, cells depend on it, form not given). The experiment in a line: Test 17: EGFR exon 20 inserted D770insNPG cell proliferation test. Conditions: 72 hours, Cell Titer-Glo, read-out: Test 17 IC50. As to the method: Test 17: EGFR Exon 20 Inserted D770insNPG Cell Proliferation Test
as §2

The target of the next experiment is T3, BaF3 (EGFR/S768I) (Homo sapiens, UniProt P00533, cells depend on it, form not given).
T3 construct: other: EGFR S768I and EGFR L8
The experiment in a line: Test 19: EGFR/S768I mutant cell line proliferation test. The settings on record: EGFR S768I and EGFR L861Q (tests 19-20), in words. The method, then: Test 19: EGFR/S768I Mutant Cell Line Proliferation Test
as §2

Experiment [2] deals with T4, BaF3 (EGFR/D770insSVD) (Homo sapiens, UniProt P00533, cells depend on it, form not given).
T4 construct: other: A763insFQEA, V769ins
The experiment can be described thus: Test 13: EGFR exon 20 inserted D770insSVD cell proliferation test. Conditions: A763insFQEA, V769insASV, D770insSVD (tests 13-15), in words. In a few lines: as §1

For experiment [3], the target named is T5, BaF3 (HER2/A775insYVMA) (Homo sapiens, UniProt P04626, cells depend on it, form not given).
T5 construct: other: tests 21-23, in words; other: HER2 exon 20 insertion mutation cells, tests 21-23
The experiment in a line: Test 21: HER2 exon 20 inserted A775insYVMA cell proliferation test. Conditions: tests 21-23, in words. As to the method:
(§3) Test 21: HER2 Exon 20 Inserted A775insYVMA Cell Proliferation Test
as §2

The test system of experiment [4] is NCI-H1975 (EGFR L858R/T790M double mutant). The experiment in a line: Test 1: EGFR L858R/T790M (EGFR double mutant) cell proliferation test. The settings on record: Homo sapiens; NCI-H1975 cells, 72 hours, Cell Titer-Glo.
For another experiment, the target named is BaF3 (HER2-A775insYVMA) (Homo sapiens, UniProt P04626, DUP772-775, cells depend on it). The experiment in a line: Test 9: BaF3 (HER2-A775insYVMA) cell proliferation test. Conditions: 72 hours, Cell Titer-Glo, read-out: Test 9 - IC50. As to the method:
Test 9: BaF3 (HER2-A775insYVMA) Cell Proliferation Test
BaF3 (HER2-A775insYVMA) was cultured in RPMI1640 medium containing 10% fetal bovine serum and 2 mM glutamine. The cells were grown at 37° C. in a humidified incubator with 5% CO2.
as §2

Another experiment deals with BaF3 (HER2-P780insGSP) (Homo sapiens, UniProt P04626, DUP778-780, cells depend on it). The experiment can be described thus: Test 10: BaF3 (HER2-P780insGSP) cell proliferation test. The settings on record: 72 hours, Cell Titer-Glo, read-out: Test 10 - IC50. The method, then: Test 10: BaF3 (HER2-P780insGSP) Cell Proliferation Test
BaF3 (HER2-P780insGSP) was cultured in RPMI1640 medium containing 10% fetal bovine serum and 2 mM glutamine. The cells were grown at 37° C. in a humidified incubator with 5% CO2.
as §2

In a further experiment the target is BaF3 (HER2-G776insVC) (Homo sapiens, UniProt P04626, cells depend on it, form not given). The experiment can be described thus: Test 11: BaF3 (HER2-G776insVC) cell proliferation test. Conditions: 72 hours, Cell Titer-Glo, read-out: Test 11 - IC50. The method, then: Test 11: BaF3 (HER2-G776insVC) Cell Proliferation Test
The engineered cell line BaF3 (HER2-G776insVC) was constructed by the inventor himself (for the method of cell line construction, see Jingrui Jiang et al., Cancer Res. 2005 Oct. 1; 65 (19): 8964-74; Jacqulyne P. Robichaux et al., Nat Med. 2018 May; 24 (5): 638-646). BaF3 (HER2-G776insVC) was cultured in RPMI1640 medium containing 10% fetal bovine serum and 2 mM glutamine. The cells were grown at 37° C. in a humidified incubator with 5% CO2.
as §2

In experiment [5] the target is T6, BaF3 (HER2/A775insYVMA) (Homo sapiens, UniProt P04626, cells depend on it, form not given).
T6 construct: other: BaF3 (HER2/A775insYVMA), 72 hours, Cell Titer-Glo
The experiment can be described thus: Test 21: HER2 exon 20 inserted A775insYVMA cell proliferation test. Conditions: read-out: test 21 IC50; BaF3 (HER2/A775insYVMA), 72 hours, Cell Titer-Glo. The method, then:
as §3, §2

In the next experiment the target is BaF3 (HER2/P780insGSP) (Homo sapiens, UniProt P04626, cells depend on it, form not given). The experiment in a line: Test 22: HER2 exon 20 inserted P780insGSP cell proliferation test. The settings on record: 72 hours, Cell Titer-Glo, read-out: test 22 IC50. As to the method: Test 22: HER2 Exon 20 Inserted P780insGSP Cell Proliferation Test
The engineered cell line BaF3 (HER2/P780insGSP) was constructed by the inventor himself (for the method of cell line construction, see Jingrui Jiang et al., Cancer Res. 2005 Oct. 1; 65 (19): 8964-74; Jacqulyne P. Robichaux et al., Nat Med. 2018 May; 24 (5): 638-646). BaF3 (HER2/P780insGSP) was cultured in RPMI 1640 medium containing 10% fetal bovine serum and 2 mM glutamine, and the cells were grown at 37° C. in a humidified incubator with 5% CO2.
as §2

Another experiment deals with BaF3 (HER2/G776insVC) (Homo sapiens, UniProt P04626, cells depend on it, form not given). The experiment in a line: Test 23: HER2 exon 20 inserted G776insVC cell proliferation test. Conditions: read-out: test 23 IC50, 72 hours, Cell Titer-Glo. As to the method:
Test 23: HER2 Exon 20 Inserted G776insVC Cell Proliferation Test
as §2

Turning to `C=CC(=O)Nc1cc(Nc2nccc(-c3cn(C)c4ccccc34)n2)c(OCC(F)(F)F)nc1N(C)CCN(C)C` [Compound 33], the GI50 at BaF3 (EGFR/D770insSVD) [1] came out at 49.5 nM; at BaF3 (EGFR/A763insFQEA), 15 nM; at BaF3 (EGFR/V769insASV) it was 25.7 nM; on BaF3 (EGFR/N771insH), 10.1 nM; at BaF3 (EGFR/D770insNPG), 5.87 nM. The “activity compared with Osimertinib (AZD9291) against EGFR S768I and EGFR L861Q mutations” value on BaF3 (EGFR/S768I) is recorded as “superior activity over Osimertinib (AZD9291)”.

For the molecule `C=CC(=O)Nc1cc(Nc2nccc(-c3cn(C)c4ccccc34)n2)c(OCC(F)(F)F)nc1N(C)CCN(C)C.Cl` [Compound 32, N-(2-((2-(dimethylamino)ethyl(methyl)amine)-5-((4-(1-methyl-1H-indol-3-yl)pyrimidine-2-yl)amine)-6-(2,2,2-trifluoroethoxy)pyridin-3-yl)acrylamide hydrochloride], the GI50 amounted to 54.5 nM on BaF3 (EGFR/D770insSVD) [1] (hydrochloride); 15.7 nM on BaF3 (EGFR/A763insFQEA) (hydrochloride); 26.9 nM at BaF3 (EGFR/V769insASV) (hydrochloride); 10.2 nM on BaF3 (EGFR/N771insH) (hydrochloride); 4.73 nM at BaF3 (EGFR/D770insNPG) (hydrochloride).

For “(R)—N-(5-((4-(1H-pyrrole[3,2-c]pyridin-1-yl)-1,3,5-triazin-2-yl)amino)-2-(2-((dimethylamino)methyl)azetidine-1-yl)-4-methoxyphenyl)acrylamide [Example 1]”, at BaF3 (EGFR/D770insSVD) [2], the “cell activity compared with Osimertinib (AZD9291) against EGFR exon 20 insertion mutations” value is listed as “significant superior cell activity over Osimertinib (AZD9291)”. At BaF3 (HER2/A775insYVMA) [3], the “cell activity compared with Osimertinib (AZD9291) against HER2 exon 20 insertion mutation” value is given as “superior cell activity over Osimertinib (AZD9291)”.

For the molecule `C=CC(=O)Nc1cc(Nc2nccc(-c3cn(C)c4ccccc34)n2)c(OCC(F)(F)F)nc1N(C)CCN(C)C.CS(=O)(=O)O` [Compound 31, N-(2-((2-(dimethylamino)ethyl(methyl)amine)-5-((4-(1-methyl-1H-indol-3-yl)pyrimidine-2-yl)amino)-6-(2,2,2-trifluoroethoxy)pyridin-3-yl)acrylamide methanesulfonate], the GI50 was 45 nM on BaF3 (EGFR/D770insSVD) [1]; 13 nM at BaF3 (EGFR/A763insFQEA); 28.4 nM on BaF3 (EGFR/V769insASV); 9.43 nM on BaF3 (EGFR/N771insH); 4.58 nM at BaF3 (EGFR/D770insNPG).

For `C=CC(=O)Nc1cc(Nc2nccc(-c3cn(C)c4ccccc34)n2)c(OC)cc1N(C)CCN(C)C` [Osimertinib (AZD9291), Osimertinib, reference compound], in [4], […] corresponded to half-maximal inhibition (IC50). The GI50 on BaF3 (HER2-A775insYVMA) came out at 61.2 nM; at BaF3 (HER2-P780insGSP), 32.2 nM; at BaF3 (HER2-G776insVC) it was 21.5 nM; on BaF3 (HER2/A775insYVMA) [5], 32.2 nM; on BaF3 (HER2/P780insGSP), 21.5 nM; at BaF3 (HER2/G776insVC) it was 61.2 nM.
